{"source": "patent US12234245B2", "about": "“Sulfonimidamide compounds as inhibitors of interleukin-1 activity” (Genentech, Inc., priority 2018, dated 2025)", "target": "NLRP3 inflammasome (Homo sapiens, UniProt Q96P20)", "sequence (Q96P20 whole entry)": "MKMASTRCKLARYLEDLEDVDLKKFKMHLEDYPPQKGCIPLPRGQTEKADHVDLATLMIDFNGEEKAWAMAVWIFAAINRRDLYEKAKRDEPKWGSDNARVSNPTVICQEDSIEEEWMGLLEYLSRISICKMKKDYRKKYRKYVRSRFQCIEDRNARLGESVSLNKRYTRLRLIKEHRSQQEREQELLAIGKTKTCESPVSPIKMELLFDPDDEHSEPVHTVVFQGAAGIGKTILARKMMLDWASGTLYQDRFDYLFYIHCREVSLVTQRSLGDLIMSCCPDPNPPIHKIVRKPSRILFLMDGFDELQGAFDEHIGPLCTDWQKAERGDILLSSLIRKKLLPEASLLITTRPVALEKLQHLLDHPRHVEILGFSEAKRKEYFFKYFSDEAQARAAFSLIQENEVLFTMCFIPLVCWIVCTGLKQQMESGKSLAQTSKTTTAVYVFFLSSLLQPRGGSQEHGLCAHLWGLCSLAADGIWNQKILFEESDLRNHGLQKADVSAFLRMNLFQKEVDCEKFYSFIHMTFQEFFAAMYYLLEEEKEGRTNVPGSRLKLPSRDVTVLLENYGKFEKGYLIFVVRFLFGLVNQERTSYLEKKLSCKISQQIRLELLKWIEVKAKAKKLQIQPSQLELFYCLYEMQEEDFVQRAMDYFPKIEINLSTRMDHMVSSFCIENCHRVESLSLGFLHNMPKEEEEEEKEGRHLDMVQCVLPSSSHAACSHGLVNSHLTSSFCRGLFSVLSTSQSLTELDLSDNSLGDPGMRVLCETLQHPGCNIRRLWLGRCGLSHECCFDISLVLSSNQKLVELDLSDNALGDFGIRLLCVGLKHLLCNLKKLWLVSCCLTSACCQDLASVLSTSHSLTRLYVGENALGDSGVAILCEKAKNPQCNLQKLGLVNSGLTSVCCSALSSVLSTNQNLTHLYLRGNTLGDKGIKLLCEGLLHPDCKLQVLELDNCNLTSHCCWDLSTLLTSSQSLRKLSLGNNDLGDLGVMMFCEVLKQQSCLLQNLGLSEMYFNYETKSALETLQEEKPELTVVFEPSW", "assay": "THP-1 ASC-GFP speck assay", "format": "cell-based", "design": "host or cells: THP-1 ASC-GFP cells, PMA-differentiated, LPS-primed, nigericin-stimulated", "details": "THP-1 ASC-GFP cells, PMA differentiated, LPS primed, 10 μM nigericin; read-out: THP1 ASC Speck IC50", "method": "THP-1 ASC-GFP cell line was purchased from Invivogen, San Diego, for inflammasome activation assay. THP-1 ASC-GFP cells stably express a 37.6 kDa ASC::GFP fusion protein that enables monitoring of spec formation by microscopy after activation of NLRP3 dependent inflammasome pathway. Cells were maintained at a density of 600,000 cells/mL in growth media consisting of RPMI 1640, 2 mM L-glutamine, 25 mM HEPES and 10% heat inactivated fetal bovine serum at 37° C. and 5% CO2. Cells were passaged every 3-4 days and used for assays for up to 20 passages.\nTHP-1 ASC-GFP cells were collected by centrifuging cells at 800 RPM for 5 minutes. Cell culture supernatant was removed and cells were re-suspended in fresh media at density of 1×10^6 cells/mL in assay media consisting of RPMI 1640, 2 mM L-glutamine, 25 mM HEPES and 10% heat inactivated fetal bovine serum. Phorbol 12-myristate 13-acetate (PMA) (Invivogen, tlrl-pma) was added to the cell suspension at a final concentration of 500 ng/ml and mixed thoroughly. 40,000 cells were added per well of a 384 well plate and differentiated into macrophages overnight at 37° C. and 5% CO2. Cells were primed with 1 μg/mL of lipopolysaccharide (Invivogen Ultrapure lipopolysaccharide from E. coli, tlrl-3pelps) in assay media for 3 hours at 37° C. and 5% CO2. After priming, media was removed and THP-1 ASC-GFP cells were preincubated with serially diluted test compounds with starting concentration of 40 μM followed by 2-fold dilution for a 20-point curve or vehicle (DMSO) for 30 min in assay media at 37° C. and 5% CO2. Cells were then stimulated with 10 μM nigericin (Invivogen, tlrl-nig-5) for 90 min at 37° C. and 5% CO2 to activate NLRP3 dependent inflammasome pathway and spec formation. After stimulation, cells were fixed with 4.8% paraformaldehyde (Electron Microscopy Sciences #15710-S) and incubated at room temperature for 15 min. Cells were then washed 3-times with 100 μL of phosphate buffered saline and permeabilized in the presence of premeablization/block buffer for 20 min at room temperature. Cells were then washed 3-times with 100 μL phosphate buffered saline and incubated for 1 hr at room temperature in the presence of hoechst. After staining with Hoechst, cells were washed 3-times with 100 μL phosphate buffered saline and imaged for ASC spec formation.\nTHP-1 ASC-GFP cells were imaged in 488 and Hoechst channels. Hoechst channel was used for cell count and 488 channel was used to identify number of GFP ASC specks in imaged fields. Percentage of cells with a spec was calculated by dividing the number of GFP positive spots by total number of cells."}
{"smiles": "COC1COc2c(S(=O)(=NC(=O)Nc3c4c(cc5c3CCC5)CCC4)NC(C)=O)cnn2C1", "note": "(single isomer, unassigned) [Example 116]", "values": [{"measurement": "IC50", "value": 2.1, "unit": "µM"}]}
{"smiles": "NS(=O)(=NC(=O)Nc1c2c(cc3c1CCC3)CCC2)c1cnn2c1CCOCC2", "note": "(single isomer, unassigned) [Example 117]", "values": [{"measurement": "IC50", "value": 4.3, "unit": "µM"}]}
{"smiles": "NS(=O)(=NC(=O)Nc1c2c(cc3c1CCC3)CCC2)c1cnn2c1CCOCC2", "note": "(single isomer, unassigned) [Example 118]", "values": [{"measurement": "IC50", "value": "> 20", "unit": "µM"}]}
{"smiles": "COc1cc(-c2cc(F)cc(C(C)C)c2NC(=O)N=S(N)(=O)c2cnn3c2OCCC3)ccn1", "note": "(single isomer, unassigned) [Example 119]", "values": [{"measurement": "IC50", "value": 0.058, "unit": "µM"}]}
{"smiles": "COc1cc(-c2cc(F)cc(C(C)C)c2NC(=O)N=S(N)(=O)c2cnn3c2OCCC3)ccn1", "note": "(single isomer, unassigned) [Example 120]", "values": [{"measurement": "IC50", "value": 1.2, "unit": "µM"}]}
{"smiles": "CO[C@@H]1CCOc2c([S@](=O)(=NC(=O)Nc3c4c(cc5c3CCC5)CCC4)NC#N)cnn2C1", "note": "(single isomer, unassigned) [Example 121]", "values": [{"measurement": "IC50", "value": 2.7, "unit": "µM"}]}
{"smiles": "CO[C@@H]1CCOc2c([S@@](=O)(=NC(=O)Nc3c4c(cc5c3CCC5)CCC4)NC#N)cnn2C1", "note": "(single isomer, unassigned) [Example 122]", "values": [{"measurement": "IC50", "value": 0.8, "unit": "µM"}]}
{"smiles": "CO[C@H]1CCOc2c([S@](=O)(=NC(=O)Nc3c4c(cc5c3CCC5)CCC4)NC#N)cnn2C1", "note": "(single isomer, unassigned) [Example 123]", "values": [{"measurement": "IC50", "value": 0.12, "unit": "µM"}]}
{"smiles": "NS(=O)(=NC(=O)Nc1c2c(cc3c1CCC3)CCC2)c1cnn2c1OCC2", "note": "(single isomer, unassigned) [Example 124]", "values": [{"measurement": "IC50", "value": 0.054, "unit": "µM"}]}
{"smiles": "NS(=O)(=NC(=O)Nc1c2c(cc3c1CCC3)CCC2)c1cnn2c1OCC2", "note": "(single isomer, unassigned) [Example 125]", "values": [{"measurement": "IC50", "value": 1.7, "unit": "µM"}]}
{"smiles": "CC1CCc2cc3c(c(NC(=O)N=S(N)(=O)c4cnn5c4OCCC5)c21)CCC3", "note": "(single isomer, unassigned) [Example 126]", "values": [{"measurement": "IC50", "value": "> 20", "unit": "µM"}]}
{"smiles": "CC1CCc2cc3c(c(NC(=O)N=S(N)(=O)c4cnn5c4OCCC5)c21)CCC3", "note": "(single isomer, unassigned) [Example 127]", "values": [{"measurement": "IC50", "value": 3.3, "unit": "µM"}]}
{"smiles": "CC1CCc2cc3c(c(NC(=O)N=S(N)(=O)c4cnn5c4OCCC5)c21)CCC3", "note": "(single isomer, unassigned) [Example 128]", "values": [{"measurement": "IC50", "value": 1.7, "unit": "µM"}]}
{"smiles": "CC1CCc2cc3c(c(NC(=O)N=S(N)(=O)c4cnn5c4OCCC5)c21)CCC3", "note": "(single isomer, unassigned) [Example 129]", "values": [{"measurement": "IC50", "value": 0.019, "unit": "µM"}]}
{"smiles": "CNC1CCn2ncc(S(N)(=O)=NC(=O)Nc3c4c(cc5c3CCC5)CCC4)c2OC1", "note": "(single isomer, unassigned) [Example 130]", "values": [{"measurement": "IC50", "value": 14, "unit": "µM"}]}
{"smiles": "CNC1CCn2ncc(S(N)(=O)=NC(=O)Nc3c4c(cc5c3CCC5)CCC4)c2OC1", "note": "(single isomer, unassigned) [Example 131]", "values": [{"measurement": "IC50", "value": 0.92, "unit": "µM"}]}
{"smiles": "CNC1CCn2ncc(S(N)(=O)=NC(=O)Nc3c4c(cc5c3CCC5)CCC4)c2OC1", "note": "(single isomer, unassigned) [Example 132]", "values": [{"measurement": "IC50", "value": 1.2, "unit": "µM"}]}
{"smiles": "NS(=O)(=NC(=O)Nc1c2c(cc3c1CCC3)CCC2)c1cnn2c1C(F)(F)CCC2", "note": "(single isomer, unassigned) [Example 133]", "values": [{"measurement": "IC50", "value": 2.8, "unit": "µM"}]}
{"smiles": "NS(=O)(=NC(=O)Nc1c2c(cc3c1CCC3)CCC2)c1cnn2c1C(F)(F)CCC2", "note": "(single isomer, unassigned) [Example 134]", "values": [{"measurement": "IC50", "value": "> 20", "unit": "µM"}]}
{"smiles": "CC1CCc2cc3c(c(NC(=O)N=S(N)(=O)c4cnn5c4OCC(C)(C)C5)c21)CCC3", "note": "(single isomer, unassigned) [Example 135]", "values": [{"measurement": "IC50", "value": "> 20", "unit": "µM"}]}
{"smiles": "CC1CCc2cc3c(c(NC(=O)N=S(N)(=O)c4cnn5c4OCC(C)(C)C5)c21)CCC3", "note": "(single isomer, unassigned) [Example 136]", "values": [{"measurement": "IC50", "value": 3.8, "unit": "µM"}]}
{"smiles": "CC1CCc2cc3c(c(NC(=O)N=S(N)(=O)c4cnn5c4OCC(C)(C)C5)c21)CCC3", "note": "(single isomer, unassigned) [Example 137]", "values": [{"measurement": "IC50", "value": 0.028, "unit": "µM"}]}
{"smiles": "CC1CCc2cc3c(c(NC(=O)N=S(N)(=O)c4cnn5c4OCC(C)(C)C5)c21)CCC3", "note": "(single isomer, unassigned) [Example 138]", "values": [{"measurement": "IC50", "value": 0.79, "unit": "µM"}]}
{"smiles": "CC1(C)Cn2ncc(S(N)(=O)=NC(=O)Nc3c4c(cc5c3CCC5)CCC4)c2O1", "note": "(single isomer, unassigned) [Example 139]", "values": [{"measurement": "IC50", "value": 0.0043, "unit": "µM"}]}
{"smiles": "CC1(C)Cn2ncc(S(N)(=O)=NC(=O)Nc3c4c(cc5c3CCC5)CCC4)c2O1", "note": "(single isomer, unassigned) [Example 140]", "values": [{"measurement": "IC50", "value": 0.56, "unit": "µM"}]}
{"smiles": "NS(=O)(=NC(=O)Nc1c2c(cc3c1CC3)CCC2)c1cnn2c1OCCC2", "note": "(single isomer, unassigned) [Example 141]", "values": [{"measurement": "IC50", "value": 1.6, "unit": "µM"}]}
{"smiles": "NS(=O)(=NC(=O)Nc1c2c(cc3c1CC3)CCC2)c1cnn2c1OCCC2", "note": "(single isomer, unassigned) [Example 142]", "values": [{"measurement": "IC50", "value": 0.084, "unit": "µM"}]}
{"smiles": "CC1CCc2cc3c(c(NC(=O)N=S(N)(=O)c4cnn5c4OCC5)c21)CCC3", "note": "(single isomer, unassigned) [Example 143]", "values": [{"measurement": "IC50", "value": 1.2, "unit": "µM"}]}
{"smiles": "CC1CCc2cc3c(c(NC(=O)N=S(N)(=O)c4cnn5c4OCC5)c21)CCC3", "note": "(single isomer, unassigned) [Example 144]", "values": [{"measurement": "IC50", "value": 0.056, "unit": "µM"}]}
{"smiles": "CC1CCc2cc3c(c(NC(=O)N=S(N)(=O)c4cnn5c4OCC5)c21)CCC3", "note": "(single isomer, unassigned) [Example 145]", "values": [{"measurement": "IC50", "value": 3.8, "unit": "µM"}]}
{"smiles": "CC1CCc2cc3c(c(NC(=O)N=S(N)(=O)c4cnn5c4OCC5)c21)CCC3", "note": "(single isomer, unassigned) [Example 146]", "values": [{"measurement": "IC50", "value": 2.6, "unit": "µM"}]}
{"smiles": "COC1COc2c(S(N)(=O)=NC(=O)Nc3c4c(cc5c3C(C)CC5)CCC4)cnn2C1", "note": "(single isomer, unassigned) [Example 147]", "values": [{"measurement": "IC50", "value": "> 20", "unit": "µM"}]}
{"smiles": "COC1COc2c(S(N)(=O)=NC(=O)Nc3c4c(cc5c3C(C)CC5)CCC4)cnn2C1", "note": "(single isomer, unassigned) [Example 148]", "values": [{"measurement": "IC50", "value": 0.71, "unit": "µM"}]}
{"smiles": "COC1COc2c(S(N)(=O)=NC(=O)Nc3c4c(cc5c3C(C)CC5)CCC4)cnn2C1", "note": "(single isomer, unassigned) [Example 149]", "values": [{"measurement": "IC50", "value": 0.65, "unit": "µM"}]}
{"smiles": "COC1COc2c(S(N)(=O)=NC(=O)Nc3c4c(cc5c3C(C)CC5)CCC4)cnn2C1", "note": "(single isomer, unassigned) [Example 150]", "values": [{"measurement": "IC50", "value": 0.024, "unit": "µM"}]}
{"smiles": "COc1cc(-c2ccc(NC(=O)N=S(N)(=O)c3cnn4c3OCC(OC)C4)c3c2CCC3)ccn1", "note": "(single isomer, unassigned) [Example 151]", "values": [{"measurement": "IC50", "value": "> 20", "unit": "µM"}]}
{"smiles": "COc1cc(-c2ccc(NC(=O)N=S(N)(=O)c3cnn4c3OCC(OC)C4)c3c2CCC3)ccn1", "note": "(single isomer, unassigned) [Example 152]", "values": [{"measurement": "IC50", "value": 4.1, "unit": "µM"}]}
{"smiles": "CC1(C)COc2c(S(N)(=O)=NC(=O)Nc3c4c(cc5c3CC(F)C5)CCC4)cnn2C1", "note": "(single isomer, unassigned) [Example 153]", "values": [{"measurement": "IC50", "value": 1.4, "unit": "µM"}]}
{"smiles": "CC1(C)COc2c(S(N)(=O)=NC(=O)Nc3c4c(cc5c3CC(F)C5)CCC4)cnn2C1", "note": "(single isomer, unassigned) [Example 154]", "values": [{"measurement": "IC50", "value": 1.8, "unit": "µM"}]}
{"smiles": "CC1(C)COc2c(S(N)(=O)=NC(=O)Nc3c4c(cc5c3CC(F)C5)CCC4)cnn2C1", "note": "(single isomer, unassigned) [Example 155]", "values": [{"measurement": "IC50", "value": 0.008, "unit": "µM"}]}
{"smiles": "CC1(C)COc2c(S(N)(=O)=NC(=O)Nc3c4c(cc5c3CC(F)C5)CCC4)cnn2C1", "note": "(single isomer, unassigned) [Example 156]", "values": [{"measurement": "IC50", "value": 0.013, "unit": "µM"}]}
{"smiles": "COc1cc(-c2ccc3c(c2NC(=O)N=S(N)(=O)c2cnn4c2OCCC4)CCO3)ccn1", "note": "(single isomer, unassigned) [Example 157]", "values": [{"measurement": "IC50", "value": 0.71, "unit": "µM"}]}
{"smiles": "COc1cc(-c2ccc3c(c2NC(=O)N=S(N)(=O)c2cnn4c2OCCC4)CCO3)ccn1", "note": "(single isomer, unassigned) [Example 158]", "values": [{"measurement": "IC50", "value": 0.025, "unit": "µM"}]}
